Earlier results, collected in publication PMC10925453, “Selective Bias Virtual Screening for Discovery of Promising Antimalarial Candidates targeting Plasmodium N-Myristoyltransferase” (Research Square, 2024).

Experiments:
Plasmodium NMT = tested on: Plasmodium NMT; parameters: method as in earlier work; details: ligand of the PDB structure, activity against Plasmodium NMT; ref PDB
human isoform 1 = details: no reference given

Structure (SMILES)	Ki (Plasmodium NMT)	IC50 (human isoform 1)
Cc1nn(C)c(C)c1NS(=O)(=O)c1c(Cl)cc(-c2ccnc(N3CCNCC3)c2)cc1Cl [2YND]	0.032 µM	–
Cc1nn(C)c(C)c1Cc1nnc(-c2sc3ccccc3c2OC2CCNCC2)o1 [2YNE, 2-(3-piperidin-4-yloxy-1-benzothiophen-2-yl)-5-[(1,3,5-trimethylpyrazol-4-yl)methyl]-1,3,4-oxadiazole]	0.0027 µM	0.06 ± 0.003 µM
